Tests used:
anterior lens capsule = experiment: staining capacity of the dyes (general statement); settings: very low amounts of dye
[1] = toxicity profile of the dyes (general statement)

Row | Structure (SMILES) | staining (anterior lens capsule) | toxicity profile [1]
1 | CCN(CC)c1ccc2nc3cc(C)c(N)cc3[o+]c2c1.[Cl-] [brilliant crysyl blue] | clearly visible staining at very low amounts | extremely advantageous toxicity profile
2 | Cc1cc(-c2ccc(/N=N/c3c(S(=O)(=O)O)cc4cc(S(=O)(=O)O)cc(N)c4c3O)c(C)c2)ccc1/N=N/c1c(S(=O)(=O)O)cc2cc(S(=O)(=O)O)cc(N)c2c1O [trypan blue] | clearly visible staining at very low amounts | extremely advantageous toxicity profile
3 | Nc1c(S(=O)(=O)[O-])cc2cc(S(=O)(=O)[O-])ccc2c1N=Nc1ccc(-c2ccc(N=Nc3c(N)c(S(=O)(=O)[O-])cc4cc(S(=O)(=O)[O-])ccc34)c(S(=O)(=O)[O-])c2)cc1.[Na+].[Na+].[Na+].[Na+].[Na+] [trypan red] | clearly visible staining at very low amounts | –

Source: patent publication US6720314B1, “Use of a vital dye for facilitating surgical procedures for cataract extraction” (priority 1998, dated 2004)
